Common to all, as to assay type: cell-based
The target of experiment [1] is T1, wild-type Androgen Receptor (AR-wt) (Homo sapiens, UniProt P10275).
T1 construct: expressed in transfected cells; host or cells: LNCaP (LNCaP AR (cs))
T1 sequence (P10275 1-920): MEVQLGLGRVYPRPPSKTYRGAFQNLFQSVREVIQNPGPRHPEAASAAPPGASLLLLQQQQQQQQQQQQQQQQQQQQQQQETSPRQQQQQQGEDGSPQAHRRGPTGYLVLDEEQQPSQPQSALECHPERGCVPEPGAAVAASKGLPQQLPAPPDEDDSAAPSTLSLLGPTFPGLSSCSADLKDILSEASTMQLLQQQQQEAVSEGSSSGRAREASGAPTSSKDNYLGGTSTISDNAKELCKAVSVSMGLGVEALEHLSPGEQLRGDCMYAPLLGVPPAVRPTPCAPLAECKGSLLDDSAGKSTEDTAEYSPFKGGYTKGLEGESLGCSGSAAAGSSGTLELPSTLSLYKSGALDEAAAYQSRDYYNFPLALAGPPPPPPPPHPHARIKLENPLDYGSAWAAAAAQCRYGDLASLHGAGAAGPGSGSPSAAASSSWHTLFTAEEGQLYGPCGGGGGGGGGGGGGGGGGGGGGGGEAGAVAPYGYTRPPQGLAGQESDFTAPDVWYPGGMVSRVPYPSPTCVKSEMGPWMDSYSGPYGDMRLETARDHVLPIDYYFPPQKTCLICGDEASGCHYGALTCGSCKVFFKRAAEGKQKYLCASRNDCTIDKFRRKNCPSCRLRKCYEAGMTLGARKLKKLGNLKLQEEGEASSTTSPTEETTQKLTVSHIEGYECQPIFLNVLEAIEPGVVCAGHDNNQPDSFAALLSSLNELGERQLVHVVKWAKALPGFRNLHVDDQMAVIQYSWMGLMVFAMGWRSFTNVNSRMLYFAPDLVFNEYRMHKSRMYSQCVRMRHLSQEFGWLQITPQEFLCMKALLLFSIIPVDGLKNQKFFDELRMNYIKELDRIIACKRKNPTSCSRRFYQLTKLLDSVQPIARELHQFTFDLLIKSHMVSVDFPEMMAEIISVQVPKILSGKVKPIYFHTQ
The experiment in a line: LNCaP-AR-wt AG reporter assay (ARE firefly luciferase, agonist mode). To be noted: for Emax: read-out: LNCaP-AR-wt AG MAX % Stim. In a few lines:
(§1)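 Cells: stable LNCaP pools, AR-wt or AR-F876L, in charcoal-stripped serum. Agonist challenge for antagonist mode was 400 pM (WT) and 600 pM (F876L). Luminescence was measured after 20-24 h incubation.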

Experiment [2] deals with T2, F876L mutant Androgen Receptor (AR-F876L) (Homo sapiens, UniProt P10275, F877L).
T2 construct: expressed in transfected cells; host or cells: LNCaP (LNCaP F876L)
T2 sequence (P10275 1-920 F877L): T1 sequence (P10275 1-920) with F877L
The experiment can be described thus: LNCaP-AR-F876L AG reporter assay (ARE firefly luciferase, agonist mode). The following applies: for Emax: read-out: LNCaP-AR-F876L AG MAX % Stim. Summed up: as §1
(In general: In a reporter assay the amount or activity of a reporter protein is the signal.)

For experiment [3], the target named is T1, wild-type Androgen Receptor (AR-wt). The experiment can be described thus: LNCaP-AR-wt ANT reporter assay (ARE firefly luciferase, antagonist mode). To be noted: for IC50: antagonist mode, 400 pM R-1881 challenge, −Log10(IC50 [Molar]), read-out: LNCaP-AR-wt ANT pIC50 (converted); for Emax: read-out: LNCaP-AR-wt ANT MAX % Inh. In a few lines: (§2)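 Read-out is luciferase luminescence taken 1 h after Steady-Glo addition, following 20-24 h compound exposure at 37 °C in LNCaP pools stably carrying wild-type or F876L AR. Cells were grown in charcoal-stripped serum. Antagonist wells received agonist at 400 pM (WT) or 600 pM (F876L).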

Experiment [4] addresses T2, F876L mutant Androgen Receptor (AR-F876L). The experiment can be described thus: LNCaP-AR-F876L ANT reporter assay (ARE firefly luciferase, antagonist mode). The following applies: for Emax: read-out: LNCaP-AR-F876L ANT MAX % Inh; for IC50: read-out: LNCaP-AR-F876L ANT pIC50 (converted). In a few lines:
as §2

The mark [5] stands for this setting: agonist mode, −Log10(EC50 [Molar]), read-out: LNCaP-AR-wt AG pEC50 (converted).
[6] abbreviates: maximum % stimulation (agonist response) over tested concentration range.
Setting [7] is: agonist mode, −Log10(EC50 [Molar]), read-out: LNCaP-AR-F876L AG pEC50 (converted).
Where [8] appears, read: maximum % inhibition of R1881 control response over tested concentration range.

Results on 8 compounds are retold here after patent US20180008587A1, “THIOHYDANTOIN ANDROGEN RECEPTOR ANTAGONISTS FOR THE TREATMENT OF CANCER” (Jaressen Pharmaceutica NV, priority 2016, published 2018).

Residue numbers refer to the chain shown, from its start. Where two headings read alike, the source gives them in different places. Where only a bound is given, the exact number is not on record here.

Take `COCCOc1ccc(N2C(=S)N(c3cnc(C#N)c(C)c3)C(=O)C23CCC3)cc1F` [Cpd 100, 5-[8-[3-fluoro-4-(2-methoxyethoxy)phenyl]-5-oxo-7-thioxo-6,8-diazaspiro[3.4]octan-6-yl]-3-methyl-pyridine-2-carbonitrile]: the EC50 in experiment [1] (setting [5]) and in experiment [2] (setting [7]) was more than 15100 nM throughout. For the same compound, the Emax in experiment [1] (setting [6]) is 1.8%; in experiment [2] (setting [6]) it was 1.7%; in experiment [3] (setting [8]), 102%; in experiment [4] (setting [8]) it was 97.2%. In addition, the figures for the IC50 in experiment [3] and in experiment [4] were 417 nM and 257 nM, respectively.

`N#Cc1ncc(N2C(=O)C3(CCC3)N(c3ccc(Oc4ncccn4)cc3)C2=S)cc1C(F)(F)F` [Cpd 107, 5-[5-oxo-8-(4-pyrimidin-2-yloxyphenyl)-7-thioxo-6,8-diazaspiro[3.4]octan-6-yl]-3-(trifluoromethyl)pyridine-2-carbonitrile]: the EC50 in experiment [1] (setting [5]) and in experiment [2] (setting [7]) was more than 15100 nM each time. For the same compound, the Emax in experiment [1] (setting [6]) was 2.1%; in experiment [2] (setting [6]), 2.4%; in experiment [3] (setting [8]), 89.1%; in experiment [4] (setting [8]), 97.3%. Also, the IC50 in experiment [3] is 562 nM; in experiment [4], 162 nM.

For the compound `N#Cc1ncc(N2C(=O)C3(CCC3)N(c3ccc(C(=O)Nc4ccccc4)c(F)c3)C2=S)cc1C(F)(F)F` [Cpd 73, 4-[6-[6-cyano-5-(trifluoromethyl)-3-pyridyl]-5-oxo-7-thioxo-6,8-diazaspiro[3.4]octan-8-yl]-2-fluoro-N-phenyl-benzamide], the EC50 in experiment [1] (setting [5]) and in experiment [2] (setting [7]) was more than 15100 nM in each case. Moreover, the Emax came to 1.9% in experiment [1] (setting [6]), 0.6% in experiment [2] (setting [6]), 99.5% in experiment [3] (setting [8]) and 99.1% in experiment [4] (setting [8]). In addition, the values for the IC50 in experiment [3] and in experiment [4] were 759 nM and 417 nM, respectively.

Turning to `CN1CCC(NC(=O)c2ccc(N3C(=S)N(c4cnc(C#N)c(C(F)(F)F)c4)C(=O)C34CCC4)cc2F)CC1` [Cpd 109, 4-[6-[6-cyano-5-(trifluoromethyl)-3-pyridyl]-5-oxo-7-thioxo-6,8-diazaspiro[3.4]octan-8-yl]-2-fluoro-N-(1-methyl-4-piperidyl)benzamide], the EC50 in experiment [1] (setting [5]) and in experiment [2] (setting [7]) was more than 15100 nM in each case. The Emax in experiment [1] (setting [6]) stood at 0.2%; in experiment [2] (setting [6]) it was 1.1%; in experiment [3] (setting [8]) it was 97.9%; in experiment [4] (setting [8]) it was 98.4%. Further, the IC50 is 1950 nM in experiment [3] and 741 nM in experiment [4].

As for `Cc1cc(N2C(=O)C3(CCC3)N(c3ccc(O)cc3)C2=S)cnc1C#N` [Cpd 48, 5-[8-(4-hydroxyphenyl)-5-oxo-7-thioxo-6,8-diazaspiro[3.4]octan-6-yl]-3-methyl-pyridine-2-carbonitrile], the EC50 in experiment [1] (setting [5]) and in experiment [2] (setting [7]) was more than 15100 nM in each case. In addition, the Emax in experiment [1] (setting [6]) amounted to 1.1%; in experiment [2] (setting [6]) it was 0.5%; in experiment [3] (setting [8]) it was 96.3%; in experiment [4] (setting [8]) it was 99.2%. Also, the IC50 in experiment [3] was 617 nM; in experiment [4], 398 nM.

With `N#Cc1ncc(N2C(=O)C3(CCC3)N(c3ccc(C(=O)NCc4cccs4)c(F)c3)C2=S)cc1C(F)(F)F` [Cpd 59, 4-[6-[6-cyano-5-(trifluoromethyl)-3-pyridyl]-5-oxo-7-thioxo-6,8-diazaspiro[3.4]octan-8-yl]-2-fluoro-N-(2-thienylmethyl)benzamide], the EC50 in experiment [1] and in experiment [2] was more than 15100 nM in each case. In addition, the Emax in experiment [1] stood at 1.5%; in experiment [2], 0.7%; in experiment [3], 102%; in experiment [4], 100%. Further, the values for the IC50 in experiment [3] and in experiment [4] were 1290 nM and 676 nM, respectively.

Take `CC(C)(O)CNC(=O)c1ccc(N2C(=S)N(c3cnc(C#N)c(C(F)(F)F)c3)C(=O)C23CCC3)cc1F` [Cpd 17, 4-[6-[6-cyano-5-(trifluoromethyl)-3-pyridyl]-5-oxo-7-thioxo-6,8-diazaspiro[3.4]octan-8-yl]-2-fluoro-N-(2-hydroxy-2-methyl-propyl)benzamide]: the EC50 in experiment [1] and in experiment [2] was more than 15100 nM in each case. The Emax in experiment [1] was -0.1%; in experiment [2] it was 0.1%; in experiment [3] it was 95.5%; in experiment [4] it was 97.2%. The IC50 in experiment [3] is 2690 nM; in experiment [4], 1100 nM.

As for `N#Cc1ccc(N2C(=S)N(c3cnc(C#N)c(C(F)(F)F)c3)C(=O)C23CCC3)cc1` [Cpd 120, 5-[8-(4-cyanophenyl)-5-oxo-7-thioxo-6,8-diazaspiro[3.4]octan-6-yl]-3-(trifluoromethyl)pyridine-2-carbonitrile], the EC50 in experiment [1] (setting [5]) and in experiment [2] (setting [7]) was more than 15100 nM in each case. Moreover, the Emax in experiment [1] (setting [6]) came to 1.2%; in experiment [2] (setting [6]), 3.9%; in experiment [3] (setting [8]), 100%; in experiment [4] (setting [8]), 98.8%. In addition, the IC50 in experiment [3] was 363 nM; in experiment [4], 224 nM.
